# Read-outs that look alike come from different tables or passages of the source.
# Key:
# [1] = system: MCF-7 cells stably expressing ER-α mutants; settings: 5 day proliferation assays; depending on the mutation and assay format
# Procedure: Potency and efficacy of ERM 1-3 were measured in vitro in ER dependent transcriptional reporter assays and viability assays of MCF-7 cells stably expressing ER-α mutants.
# MCF-7 Mutant ER-α Stable Cell Line Generation: MCF-7 cells stably expressing wild-type or ER-α mutants were generated by subcloning ESR1 wild-type and mutant cDNAs containing an amino terminal hemagglutinin tag into pCDH-EF1-MCS-(PGK-Puro) (referred to as EF1 HA-ER-α) and pCDH-UbC-MCS-EF1-Hygro (referred to as UbC HA-ER-α) (System Biosciences). The resulting plasmids, in addition to an empty vector negative control, were subsequently cotransfected into HEK293T cells with the pPACKH1 packaging plasmid mix (System Biosciences) according to the manufacturer's protocol. Four days post transfection lentiviral particles were purified from the cell medium, tiered and stored at −80° C. MCF-7 cells were transduced with the purified viral particles and stable cell lines were selected by growth in RPMI containing 10% FBS plus 1 μG/mL puromycin or 200 μG/mL hygromycin for pCDH-EF1-MCS-(PGK-Puro) and pCDH-UbC-MCS-EF1-Hygro, respectively.
# MCF-7 Stable Cell Line Viability: MCF-7 cells were enumerated with a hemacytometer adjusted to a concentration of 40,000 cells per mL in Phenol Free RPMI containing 10% CSS with NEAA and Sodium Pyruvate. 16 microliters of the cell suspension was added to each well of a 384 well tissue culture treated white clear bottom polystyrene plate (Corning) using a Matrix 16 channel electronic pipette. The cells were incubated overnight to allow the cells to adhere. […] The “average” of the relative luminescence units (RLUs) of the wells are considered to be the baseline value at time=zero. […] The relative luminescence units (RLUs) of each well were measured, and relative proliferation (fold) of each sample was determined as follows: (RLU sample−RLU background)/(RLU at T=0)=relative proliferation
# Potency and efficacy of ERM 4-23 were measured in vitro in ER dependent transcriptional reporter assays and viability assays of MCF-7 cells stably expressing ER-α mutants.
# [2] = system: MCF-7 cells stably expressing EF1 HA-ER-α wild-type; experiment: MCF-7 Stable Cell Line Viability (EF1 HA-ER-α series); type: cell-based; parameters: Percent inhibition compared to vehicle: concentration or dose not given beside the values; settings: for Percent inhibition compared to vehicle / Efficacy (Emax): EF1 HA-ER-α Wild-type; for Percent inhibition compared to vehicle: 5-Day Incubation; for Efficacy (Emax): Day 5 relative to Day 0; for EC50: Homo sapiens, MCF7, EF1 HA-ER-α Wild-type, read-out: Potency (EC50; nM)
# Summary of the method: (§1)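 CellTiter-Glo read-out: background-subtracted RLU divided by day-0 RLU gives fold proliferation. Cells were MCF-7 transduced with HA-ER-α lentivirus (EF1 high or UbC low-moderate promoter) or empty vector, dosed 10 μM–5 pM for 5 days in phenol-free RPMI/10% CSS.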
# [3] = system: MCF-7 cells transduced with an empty EF1 lentiviral vector (negative control); experiment: as above; type: cell-based; parameters: Percent inhibition compared to vehicle: concentration or dose not given beside the values; settings: for EC50: Homo sapiens, MCF7, Receptor None (empty EF1 lentiviral vector), read-out: Potency (EC50; nM); for Percent inhibition compared to vehicle / Efficacy (Emax): Receptor None (empty EF1 lentiviral vector); for Percent inhibition compared to vehicle: 5-Day Incubation; for Efficacy (Emax): Day 5 relative to Day 0
# Summary of the method: as §1
# [4] = system: MCF-7 cells stably expressing UbC HA-ER-α wild-type; experiment: MCF-7 Stable Cell Line Viability (UbC HA-ER-α series); type: cell-based; parameters: Percent inhibition compared to vehicle: concentration or dose not given beside the values; settings: for EC50: Homo sapiens, MCF7, UbC HA-ER-α Wild-type, read-out: Potency (EC50; nM); for Percent inhibition compared to vehicle / Efficacy (Emax): UbC HA-ER-α Wild-type; for Percent inhibition compared to vehicle: 5-Day Incubation; for Efficacy (Emax): Day 5 relative to Day 0
# Summary of the method: as §1
# [5] = system: MCF-7 cells (negative control); experiment: as above; type: cell-based; parameters: Percent inhibition compared to vehicle: concentration or dose not given beside the values; settings: for EC50: Homo sapiens, MCF7, Receptor None (MCF-7 negative control); for Percent inhibition compared to vehicle / Efficacy (Emax): Receptor None (MCF-7 negative control)
# Summary of the method: (§2)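 Lentivirally transduced MCF-7 (HA-ER-α WT/mutant under EF1 or UbC; empty vector control); phenol-free RPMI + 10% CSS; 10-pt 1:5 dilution, 10 μM–5 pM final; 5 d; CellTiter-Glo; (RLU − background)/RLU T0.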
# [6] = system: MCF-7 cells stably expressing EF1 HA-ER-α L536R; experiment: cells; type: cell-based; parameters: Percent inhibition compared to vehicle: concentration or dose not given beside the values; settings: for Percent inhibition compared to vehicle / Efficacy (Emax): EF1 HA-ER-α L536R; for Percent inhibition compared to vehicle: 5-Day Incubation; for Efficacy (Emax): Day 5 relative to Day 0; for EC50: Homo sapiens, MCF7, EF1 HA-ER-α L536R, read-out: Potency (EC50; nM)
# Summary of the method: as §1
# [7] = system: MCF-7 cells stably expressing UbC HA-ER-α L536R; experiment: cells; type: cell-based; parameters: Percent inhibition compared to vehicle: concentration or dose not given beside the values; settings: for EC50: Homo sapiens, MCF7, UbC HA-ER-α L536R, read-out: Potency (EC50; nM); for Percent inhibition compared to vehicle / Efficacy (Emax): UbC HA-ER-α L536R; for Percent inhibition compared to vehicle: 5-Day Incubation; for Efficacy (Emax): Day 5 relative to Day 0
# Summary of the method: as §2
# [8] = system: MCF-7 cells stably expressing EF1 HA-ER-α L536P; experiment: cells; type: cell-based; parameters: Percent inhibition compared to vehicle: concentration or dose not given beside the values; settings: for Percent inhibition compared to vehicle / Efficacy (Emax): EF1 HA-ER-α L536P; for Percent inhibition compared to vehicle: 5-Day Incubation; for Efficacy (Emax): Day 5 relative to Day 0; for EC50: Homo sapiens, MCF7, EF1 HA-ER-α L536P, read-out: Potency (EC50; nM)
# Summary of the method: as §1
structure (smiles),measurement,setting,value
"CC/C(=C(/c1ccc(/C=C/C(=O)O)cc1)c1ccc2[nH]ncc2c1)c1ccc(F)cc1Cl [Compound 1-3, (E)-3-(4-((E)-2-(2-chloro-4-fluorophenyl)-1-(1H-indazol-5-yl)but-1-en-1-yl)phenyl)acrylic acid]",reduced the number of viable cells (compared to DMSO control),[1],44%-78%
same,Percent inhibition compared to vehicle,"[2]; Agonist Mode, −E2",48%
same,Efficacy (Emax),"[2]; Agonist Mode, −E2",2.97 ± 0.50
same,Percent inhibition compared to vehicle,"[2]; Antagonist Mode, +E2",59%
same,Efficacy (Emax),"[2]; Antagonist Mode, +E2",2.78 ± 0.26
same,EC50,"[2]; Agonist Mode, −E2",2.84 ± 1.36 nM
same,EC50,"[2]; Antagonist Mode, +E2",28 ± 10.3 nM
same,EC50,"[3]; Agonist Mode, −E2",0.828 ± 0.347 nM
same,EC50,"[3]; Antagonist Mode, +E2",9.27 ± 3.93 nM
same,Percent inhibition compared to vehicle,"[3]; Agonist Mode, −E2",54%
same,Efficacy (Emax),"[3]; Agonist Mode, −E2",1.03 ± 0.14
same,Percent inhibition compared to vehicle,"[3]; Antagonist Mode, +E2",75%
same,Efficacy (Emax),"[3]; Antagonist Mode, +E2",1.01 ± 0.12
same,EC50,"[4]; Agonist Mode, −E2",0.58 ± 0.386 nM
same,EC50,"[4]; Antagonist Mode, +E2",5.5 ± 6.28 nM
same,Percent inhibition compared to vehicle,"[4]; Agonist Mode, −E2",37%
same,Efficacy (Emax),"[4]; Agonist Mode, −E2",1.17 ± 0.17
same,Percent inhibition compared to vehicle,"[4]; Antagonist Mode, +E2",76%
same,Efficacy (Emax),"[4]; Antagonist Mode, +E2",1.16 ± 0.03
same,EC50,"[5]; Agonist Mode, −E2, read-out: Potency (EC50; nM)",0.603 ± 0.74 nM
same,EC50,"[5]; Antagonist Mode, +E2, read-out: Potency (EC50; nM)",4.84 ± 4.42 nM
same,Percent inhibition compared to vehicle,"[5]; Agonist Mode, −E2, 5-Day Incubation",30%
same,Efficacy (Emax),"[5]; Agonist Mode, −E2, Day 5 relative to Day 0",1.23 ± 0.88
same,Percent inhibition compared to vehicle,"[5]; Antagonist Mode, +E2, 5-Day Incubation",70%
same,Efficacy (Emax),"[5]; Antagonist Mode, +E2, Day 5 relative to Day 0",0.97 ± 0.01
same,Percent inhibition compared to vehicle,"[6]; Agonist Mode, −E2",47%
same,Efficacy (Emax),"[6]; Agonist Mode, −E2",3.61 ± 0.24
same,Percent inhibition compared to vehicle,"[6]; Antagonist Mode, +E2",45%
same,Efficacy (Emax),"[6]; Antagonist Mode, +E2",3.77 ± 0.48
same,EC50,"[6]; Agonist Mode, −E2",10.4 ± 6.52 nM
same,EC50,"[6]; Antagonist Mode, +E2",15.6 ± 6.9 nM
same,EC50,"[7]; Agonist Mode, −E2",0.926 ± 0.428 nM
same,EC50,"[7]; Antagonist Mode, +E2",6.96 ± 3.76 nM
same,Percent inhibition compared to vehicle,"[7]; Agonist Mode, −E2",55%
same,Efficacy (Emax),"[7]; Agonist Mode, −E2",1.73 ± 0.22
same,Percent inhibition compared to vehicle,"[7]; Antagonist Mode, +E2",71%
same,Efficacy (Emax),"[7]; Antagonist Mode, +E2",1.71 ± 0.10
same,Percent inhibition compared to vehicle,"[8]; Agonist Mode, −E2",57%
same,Efficacy (Emax),"[8]; Agonist Mode, −E2",3.54 ± 0.45
same,Percent inhibition compared to vehicle,"[8]; Antagonist Mode, +E2",59%
same,Efficacy (Emax),"[8]; Antagonist Mode, +E2",3.74 ± 0.53
same,EC50,"[8]; Agonist Mode, −E2",18.2 ± 3.29 nM
same,EC50,"[8]; Antagonist Mode, +E2",41.9 ± 8.25 nM
